According to US20080300243A1, “Amide Derivatives as Ion-Channel Ligands and Pharmaceutical Compositions and Methods of Using the Same” (priority 2005, published 2008):

Columns and labels:
[1] = Half-life in human liver microsomes (HLM); format: in vitro ADME; details: human, human liver microsomes (HLM, HL101), pH 7.4; 1 μM compound, 0.78 mg/mL HLM, 37° C., NADPH
Procedure: Test compounds (1 μM) were incubated with 3.3 mM MgCl2 and 0.78 mg/mL HLM (HL101) in 100 mM potassium phosphate buffer (pH 7.4) at 37° C. on the 96-deep well plate. The reaction mixture was split into two groups, a non-P450 and a P450 group. NADPH was only added to the reaction mixture of the P450 group. An aliquot of samples of P450 group was collected at 0, 10, 30, and 60 min time point, where 0 min time point indicated the time when NADPH was added into the reaction mixture of P450 group. An aliquot of samples of non-P450 group was collected at −10 and 65 min time point. Collected aliquots were extracted with acetonitrile solution containing an internal standard. The precipitated protein was spun down in centrifuge (2000 rpm, 15 min). The compound concentration in supernatant was measured by LC/MS/MS system.
The half-life value was obtained by plotting the natural logarithm of the peak area ratio of compounds/internal standard versus time. The slope of the line of best fit through the points yields the rate of metabolism (k). This was converted to a half-life value using following equations:
Exemplary compounds of the invention were tested (1 μM), and were incubated with 3.3 mM MgCl2 and 0.78 mg/mL HLM (HL101) in 100 mM potassium phosphate buffer (pH 7.4) at 37° C. on the 96-deep well plate. The reaction mixture was split into two groups, a non-P450 and a P450 group. NADPH was only added to the reaction mixture of the P450 group. An aliquot of samples of the P450 group was collected at 0, 10, 30, and 60 minute time points, where the 0 minute time point indicated the time when NADPH was added into the reaction mixture of the P450 group. An aliquot of samples of the non-P450 group was collected at −10 and 65 minute time points. Collected aliquots were extracted with an acetonitrile solution containing an internal standard. The precipitated protein was spun down in a centrifuge (2000 rpm, 15 rain). The compound concentration in supernatant was measured by LC/MS/MS system. The half-life value (T1/2) was obtained by plotting the natural logarithm of the peak area ratio of compounds/internal standard versus time. The slope of the line of best fit through the points yields the rate of metabolism (k). This was converted to a half-life value using following equations: Half-life=ln 2/k.

VR1 receptor = target: T1, VR1 receptor (Rattus norvegicus, UniProt O35433); experiment: Calcium imaging assay in DRG neurons, capsaicin stimulus; format: cell-based; details: for inhibition of the Capsaicin induced intracellular calcium response (FIG. 1): 3 nM compound, DRG neurons
T1 construct: endogenous in cells; host or cells: dorsal root ganglion (DRG) neurons
Procedure: Therefore the functional activity of compounds at the VR1 receptor may be determined by measuring changes in intracellular calcium levels in neurons such as the dorsal root ganglion. […] Prior to assay, cells were loaded with 5 μg/ml Fura2 in normal saline solution at 37° C. for 40 minutes. Cells were then washed with normal saline to remove dye before commencement of the experiment. The plated neurons were transferred into a chamber on the stage of a Nikon eclipse TE300 microscope after which neurons were allowed to attain a stable fluorescence for about 10 minutes before beginning the experiment. The assay consists of two stages, a pretreatment phase followed by a treatment phase. First, a solution of the test compound was added from a multivalve perfusion system to the cells for 1 minute (pretreatment). […] Fura2 was excited at 340 and 380 nm to indicate relative calcium ion concentration. Changes in wavelength measurements were made throughout the course of the experiment. The fluorescence ratio was calculated by dividing fluorescence measured at 340 nm by that at 380 nm. Data were collected using Intelligent Imaging's Slidebook software.

VR1 [2] = target: T2, VR1 (Homo sapiens, UniProt Q8NER1); experiment: Acid stimulation assay (FDSS 6000); format: cell-based; design: host or cells: unspecified cell suspension; details: final assay buffer pH5.8, 15 min pre-incubation
Procedure: The Acid-induced changes in the intracellular calcium concentration were monitored using FDSS 6000 (Hamamatsu Photonics, Japan), a fluorometric imaging system. The cell suspension in resting buffer (HBSS supplemented with […], pH 7.4) was pre-incubated with varying concentrations of the test compounds or resting buffer (buffer control) for 15 minutes at room temperature under dark conditions. The cells were automatically added the stimulating solution (HBSS supplemented with MES, final assay buffer pH5.8) by the FDSS 6000.
Target sequence in this assay (Q8NER1 whole entry, species assumed): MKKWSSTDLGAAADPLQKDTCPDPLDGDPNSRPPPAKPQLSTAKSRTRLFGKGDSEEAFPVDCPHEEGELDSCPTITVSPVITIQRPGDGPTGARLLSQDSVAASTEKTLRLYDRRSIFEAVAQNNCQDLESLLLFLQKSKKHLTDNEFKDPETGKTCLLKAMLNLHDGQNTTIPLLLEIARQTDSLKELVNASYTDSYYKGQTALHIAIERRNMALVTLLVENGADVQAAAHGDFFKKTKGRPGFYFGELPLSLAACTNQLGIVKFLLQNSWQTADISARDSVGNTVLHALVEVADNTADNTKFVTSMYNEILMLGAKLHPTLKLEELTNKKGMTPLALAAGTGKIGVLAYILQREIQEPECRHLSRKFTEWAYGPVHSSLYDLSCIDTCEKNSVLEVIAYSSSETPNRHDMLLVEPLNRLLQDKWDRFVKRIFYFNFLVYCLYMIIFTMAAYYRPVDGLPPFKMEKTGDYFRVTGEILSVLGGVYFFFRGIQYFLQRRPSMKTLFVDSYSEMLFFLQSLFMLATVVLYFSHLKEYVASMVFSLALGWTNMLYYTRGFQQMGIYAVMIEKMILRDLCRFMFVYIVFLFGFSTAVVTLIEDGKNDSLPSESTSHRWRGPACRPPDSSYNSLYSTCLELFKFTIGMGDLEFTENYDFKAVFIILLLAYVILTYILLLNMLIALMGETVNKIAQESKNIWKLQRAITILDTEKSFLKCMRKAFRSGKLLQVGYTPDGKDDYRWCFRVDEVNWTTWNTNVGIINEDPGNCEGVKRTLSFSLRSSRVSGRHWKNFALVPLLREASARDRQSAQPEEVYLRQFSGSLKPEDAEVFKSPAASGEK

VR1 [3] = target: T2, VR1; experiment: Calcium uptake assay, low pH (proton) stimulus; format: cell-based; design: expressed in transfected cells; host or cells: T-REx HEK 293 (Invitrogen), pcDNA5/TO vector; details: HEK293; 0.3 μM compound; low pH agonist; HEK 293 cells expressing hVR1; read-out: Low pH % Inhib. @ 0.3 μM
Target sequence in this assay (Q8NER1 whole entry): as the sequence (Q8NER1 whole entry, species assumed) above

T1 sequence (O35433 whole entry): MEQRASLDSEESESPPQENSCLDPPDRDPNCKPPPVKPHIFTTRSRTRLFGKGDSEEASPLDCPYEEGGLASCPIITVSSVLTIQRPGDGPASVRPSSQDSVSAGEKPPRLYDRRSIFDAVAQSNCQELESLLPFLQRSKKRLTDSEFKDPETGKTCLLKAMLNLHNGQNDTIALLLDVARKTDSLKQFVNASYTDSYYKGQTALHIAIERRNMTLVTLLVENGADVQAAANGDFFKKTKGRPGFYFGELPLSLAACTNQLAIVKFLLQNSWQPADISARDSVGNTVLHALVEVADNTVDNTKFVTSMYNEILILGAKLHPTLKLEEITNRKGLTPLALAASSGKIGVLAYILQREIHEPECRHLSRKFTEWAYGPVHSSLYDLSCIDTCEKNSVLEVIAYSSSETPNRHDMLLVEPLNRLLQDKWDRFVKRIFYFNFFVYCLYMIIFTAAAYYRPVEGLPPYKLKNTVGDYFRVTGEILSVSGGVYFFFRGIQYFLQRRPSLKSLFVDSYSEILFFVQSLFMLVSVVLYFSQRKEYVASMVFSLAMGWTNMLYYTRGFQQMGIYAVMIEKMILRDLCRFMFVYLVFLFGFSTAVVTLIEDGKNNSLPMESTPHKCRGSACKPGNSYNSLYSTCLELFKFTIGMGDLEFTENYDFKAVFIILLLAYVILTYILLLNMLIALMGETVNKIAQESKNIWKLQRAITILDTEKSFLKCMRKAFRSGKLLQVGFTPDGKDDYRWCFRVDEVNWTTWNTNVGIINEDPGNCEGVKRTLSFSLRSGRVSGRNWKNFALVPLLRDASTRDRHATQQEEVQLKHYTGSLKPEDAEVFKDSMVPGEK

half-life at 1 μM [1]: 3.26 h
inhibition of the Capsaicin induced intracellular calcium response (FIG. 1) (VR1 receptor): significant inhibition
inhibition of the Capsaicin induced intracellular calcium response (FIG. 1) (VR1 receptor; listed as compound 225): reduced
inhibition at 0.003 µM (VR1 receptor; DRG neuron, read-out: % inhibition of capsaicin induced calcium influx): > 75%
IC50 (VR1 [2]): 0.9 nM
inhibition at 0.3 µM (VR1 [3]): 110%
Structure (SMILES): Cc1cc(/C=C/C(F)(F)F)ccc1C(=O)Nc1ccc2sc(CO)nc2c1 [Compound 225]
